Measurements as given in the NIST ThermoML archive (doi:10.1021/je501085y).
Numbers after ± are expanded uncertainties.

Columns and labels:
[1] = refractive index (Na D-line) (dimensionless); settings: 293.15 K; 101.33 kPa; Liquid; Standard Abbe refractometry
[2] = 293.15 K; 101.33 kPa; Liquid; Vibrating tube method

| refractive index [1] | mass density [2] | SMILES |
| --- | --- | --- |
| 1.4187 ± 0.0007 | 860.43 ± 0.12 kg/m3 | COC1CCCC1 [methoxycyclopentane] |
| 1.4223 ± 0.0007 | 1051.22 ± 0.1 kg/m3 | C=CC(=O)O [propenoic acid] |
